{"source": "PubChem BioAssay AID328", "about": "(DTP/NCI, 2004)", "tested_on": "BDF1 mice, P388 leukemia ip, median survival T/C", "experiment": "NCI In Vivo Anticancer Drug Screen. Data for tumor model P388 Leukemia (intraperitoneal) in B6D2F1 (BDF1) mice", "conditions": "endpoint: median survival time, higher = longer survival", "outline": "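Antitumour effect was judged in vivo: survival in drug-treated mice, normalised to that of vehicle-dosed controls, gives the reported T/C.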", "key": {"[1]": {"conditions": "dose: 50.0 mg/kg/injection, schedule: Q01DX009 (ip), vehicle: Klucel (hydroxypropylcellulose) (HPC)"}, "[2]": {"conditions": "dose: 100.0 mg/kg/injection, schedule: Q01DX009 (ip), vehicle: Klucel (hydroxypropylcellulose) (HPC)"}, "[3]": {"conditions": "dose: 12.5 mg/kg/injection, schedule: Q01DX009 (ip), vehicle: Klucel (hydroxypropylcellulose) (HPC)"}, "[4]": {"conditions": "dose: 25.0 mg/kg/injection, schedule: Q01DX009 (ip), vehicle: Klucel (hydroxypropylcellulose) (HPC)"}}, "note": "Several values for one entry are separate records, joined by “and”; a condition that tells them apart may be missing. Equal values may be shown once. Toxic doses and inconclusive results are not listed."}
{"smiles": "CCOC(=O)C(Cc1ccc(N(CCCl)CCCl)cc1)NC(=O)C(N)CO", "note": "(configuration not stated)", "values": [{"measurement": "T/C", "setting": "dose: 5.0 mg/kg/injection, schedule: Q04DX003 (ip), vehicle: water", "result": "157 % of control"}, {"measurement": "T/C", "setting": "dose: 10.0 mg/kg/injection, schedule: Q04DX003 (ip), vehicle: water", "result": "263 % of control"}, {"measurement": "T/C", "setting": "dose: 20.0 mg/kg/injection, schedule: Q04DX003 (ip), vehicle: water", "result": "263 % of control"}, {"measurement": "T/C", "setting": "dose: 40.0 mg/kg/injection, schedule: Q04DX003 (ip), vehicle: water", "result": "105 % of control"}]}
{"smiles": "CC(=O)OCc1c(C)nc2sccn12", "values": [{"measurement": "T/C", "setting": "dose: 12.5 mg/kg/injection, schedule: Q01DX001 (ip), vehicle: saline", "result": "102 % of control"}, {"measurement": "T/C", "setting": "dose: 25.0 mg/kg/injection, schedule: Q01DX001 (ip), vehicle: saline", "result": "92 % of control"}, {"measurement": "T/C", "setting": "dose: 50.0 mg/kg/injection, schedule: Q01DX001 (ip), vehicle: saline", "result": "96 % of control"}]}
{"smiles": "C=C(NC(=O)C(=C)NC(=O)c1csc(C2=NC3c4csc(n4)C4NC(=O)c5csc(n5)C(C(C)(O)C(C)O)NC(=O)C5CSC(=N5)/C(=C/C)NC(=O)C(C(C)O)NC(=O)c5csc(n5)C3(CC2)NC(=O)C(C)NC(=O)C(=C)NC(=O)C(C)NC(=O)C(C(C)CC)NC2C=Cc3c(C(C)O)cc(nc3C2O)C(=O)OC4C)n1)C(N)=O", "note": "(configuration not stated)", "values": [{"measurement": "T/C", "setting": "dose: 18.75 mg/kg/injection, schedule: Q01DX009 (ip), vehicle: Klucel (hydroxypropylcellulose) (HPC)", "result": "112 % of control"}, {"measurement": "T/C", "setting": "dose: 37.5 mg/kg/injection, schedule: Q01DX009 (ip), vehicle: Klucel (hydroxypropylcellulose) (HPC)", "result": "114 % of control"}, {"measurement": "T/C", "setting": "[1]", "result": "158 % of control"}, {"measurement": "T/C", "setting": "dose: 75.0 mg/kg/injection, schedule: Q01DX009 (ip), vehicle: Klucel (hydroxypropylcellulose) (HPC)", "result": "114 % of control"}, {"measurement": "T/C", "setting": "[2]", "result": "155 % of control and 163 % of control"}, {"measurement": "T/C", "setting": "dose: 200.0 mg/kg/injection, schedule: Q01DX009 (ip), vehicle: Klucel (hydroxypropylcellulose) (HPC)", "result": "156 % of control and 165 % of control and 182 % of control"}, {"measurement": "T/C", "setting": "dose: 300.0 mg/kg/injection, schedule: Q01DX009 (ip), vehicle: Klucel (hydroxypropylcellulose) (HPC)", "result": "114 % of control"}]}
{"smiles": "CC1CCC2(C)CCC3(C)C(=CCC4C5(C)CCC(OC(=O)c6ccccc6)C(C)(C)C5CCC43C)C2C1C", "note": "(configuration not stated)", "values": [{"measurement": "T/C", "setting": "dose: 75.0 mg/kg/injection, schedule: Q04DX003 (ip), vehicle: saline with Tween-80", "result": "100 % of control"}, {"measurement": "T/C", "setting": "dose: 150.0 mg/kg/injection, schedule: Q04DX003 (ip), vehicle: saline with Tween-80", "result": "100 % of control"}, {"measurement": "T/C", "setting": "dose: 300.0 mg/kg/injection, schedule: Q04DX003 (ip), vehicle: saline with Tween-80", "result": "105 % of control"}]}
{"smiles": "O=I(=O)c1ccccc1", "values": [{"measurement": "T/C", "setting": "[3]", "result": "91 % of control"}, {"measurement": "T/C", "setting": "dose: 17.0 mg/kg/injection, schedule: Q01DX009 (ip), vehicle: saline with Tween-80", "result": "92 % of control"}, {"measurement": "T/C", "setting": "[4]", "result": "86 % of control and 100 % of control"}, {"measurement": "T/C", "setting": "dose: 25.0 mg/kg/injection, schedule: Q01DX009 (ip), vehicle: saline with Tween-80", "result": "96 % of control"}, {"measurement": "T/C", "setting": "dose: 25.0 mg/kg/injection, schedule: Q04DX003 (ip), vehicle: saline with Tween-80", "result": "100 % of control"}, {"measurement": "T/C", "setting": "dose: 37.0 mg/kg/injection, schedule: Q01DX009 (ip), vehicle: saline with Tween-80", "result": "96 % of control"}, {"measurement": "T/C", "setting": "[1]", "result": "86 % of control and 90 % of control and 118 % of control"}, {"measurement": "T/C", "setting": "dose: 50.0 mg/kg/injection, schedule: Q01DX009 (ip), vehicle: saline with Tween-80", "result": "115 % of control"}, {"measurement": "T/C", "setting": "dose: 50.0 mg/kg/injection, schedule: Q04DX003 (ip), vehicle: saline with Tween-80", "result": "90 % of control"}, {"measurement": "T/C", "setting": "[2]", "result": "104 % of control"}, {"measurement": "T/C", "setting": "dose: 100.0 mg/kg/injection, schedule: Q01DX009 (ip), vehicle: saline with Tween-80", "result": "120 % of control"}, {"measurement": "T/C", "setting": "dose: 100.0 mg/kg/injection, schedule: Q04DX003 (ip), vehicle: saline with Tween-80", "result": "90 % of control"}]}
{"smiles": "COC(=O)c1cc([N+](=O)[O-])c(Cl)c([N+](=O)[O-])c1", "values": [{"measurement": "T/C", "setting": "dose: 6.25 mg/kg/injection, schedule: Q01DX009 (ip), vehicle: Klucel (hydroxypropylcellulose) (HPC)", "result": "109 % of control"}, {"measurement": "T/C", "setting": "[3]", "result": "104 % of control"}, {"measurement": "T/C", "setting": "[4]", "result": "100 % of control"}, {"measurement": "T/C", "setting": "dose: 25.0 mg/kg/injection, schedule: Q04DX003 (ip), vehicle: Klucel (hydroxypropylcellulose) (HPC)", "result": "100 % of control"}, {"measurement": "T/C", "setting": "dose: 50.0 mg/kg/injection, schedule: Q04DX003 (ip), vehicle: Klucel (hydroxypropylcellulose) (HPC)", "result": "105 % of control"}]}
{"smiles": "N#CC1CCCCC1C1(C#N)CCCCC1Cc1ccc2ccccc2n1", "note": "(configuration not stated)", "values": [{"measurement": "T/C", "setting": "dose: 100.0 mg/kg/injection, schedule: Q04DX002 (ip), vehicle: saline with Tween-80", "result": "96 % of control"}, {"measurement": "T/C", "setting": "dose: 200.0 mg/kg/injection, schedule: Q04DX002 (ip), vehicle: saline with Tween-80", "result": "104 % of control"}, {"measurement": "T/C", "setting": "dose: 400.0 mg/kg/injection, schedule: Q04DX002 (ip), vehicle: saline with Tween-80", "result": "107 % of control"}]}
